From PubChem BioAssay AID1549 (Sanford-Burnham Center for Chemical Genomics, 2009) come the findings set out here.

Usually Kd stands for the equilibrium constant for the complex coming apart.

Active and inactive are the calls of the source. No rule for the calls is given here.

The target in the experiment is Influenza A virus M2 proton channel (A/TW/4845/1999 H1N1). Put plainly: NMR binding screen, influenza A virus M2 proton channel, Kd (AID 1549). The following applies: M2 protein.
In the case of `C=C(C)C1(O)OC(=O)C=C1OC` (stereo not drawn), the Kd was > 4 mM (inactive).

For `c1cnc(N2CCNCC2)nc1`, the Kd was > 4 mM (inactive).

For `O=C1OCCC1Sc1nc2ccccc2c(=O)[nH]1` (stereo not drawn), the Kd is > 4 mM (inactive).

Take `CSc1nnc(CN2CCSCC2)n1C`: the Kd was > 4 mM (inactive).

`O=C(Nn1cnnc1)c1ccccc1-c1ccccc1`: the Kd was > 4 mM (inactive).

With `Cc1nnc(NCc2ccc3c(c2)OCO3)[nH]c1=O`, the Kd was > 4 mM (inactive).

Take `O=c1[nH]c(CN2CCN(CCO)CC2)nc2ccccc12`: the Kd is > 4 mM (inactive).

On to `COC(=O)N1CCN(c2ccc(C(C)=O)cc2)CC1`, for which the Kd was > 4 mM (inactive).

As for `Cc1cc(C)cc(C(=O)N2CCC(C(N)=O)CC2)c1`, the Kd is > 4 mM (inactive).

`OCc1ccc(CN2CCOCC2)cc1`: the Kd was > 4 mM (inactive).

Consider `CNC(=O)C(=O)NCc1ccc(C)cc1`, for which the Kd was > 4 mM (inactive).

In the case of `O=C(Nc1cccc(O)c1)c1ccccc1`, the Kd was > 4 mM (inactive).

Turning to `O=c1[nH]cc(Nc2ccccc2)c(=O)[nH]1`, the Kd is > 4 mM (inactive).

In the case of `CCOC(=O)c1c(C)cc(OC)cc1O`, the Kd was > 4 mM (inactive).

For the compound `O=C(O)c1ncoc1-c1ccccc1`, the Kd is > 4 mM (inactive).

As for `Cn1nnc2cc(C(=O)N3CCSCC3)ccc21`, the Kd was > 4 mM (inactive).

For `CC(=O)Nc1nnc(-c2ccccc2)o1`, the Kd is > 4 mM (inactive).

As to `NC(c1ccccc1)c1ccccn1` (stereo not drawn), the Kd was > 4 mM (inactive).

`Cc1nnc(Nc2cccnc2)[nH]c1=O`: the Kd was > 4 mM (inactive).

As for `Cc1ccc(SCc2cc(=O)n3[nH]cnc3n2)cc1`, the Kd is > 4 mM (inactive).

Turning to `Cc1csc(SCC(=O)N2CCCC2)n1`, the Kd is > 4 mM (inactive).

Regarding `O=C1CC2OCC=C3CN4CC[C@]56c7ccccc7N1C5[C@H]2[C@H]3CC46` (stereo partly drawn), the Kd is > 4 mM (inactive).

Consider `CC(=O)O[C@H]1C[C@@H](OC(C)=O)C(C)(C)C2CC(=O)[C@]3(C)C(CC[C@@]4(C)[C@H](c5ccoc5)OC(=O)[C@H]5O[C@]543)[C@]21C` (stereo partly drawn), for which the Kd is > 4 mM (inactive).

For the compound `CC(C)CC(=O)Nc1c[nH]c(=O)[nH]c1=O`, the Kd is > 4 mM (inactive).

For the compound `NC(=O)C1CCN(C(=O)c2ccco2)CC1`, the Kd was > 4 mM (inactive).

Take `COC(=O)c1cccc(Cn2nnc3ccccc3c2=O)c1`: the Kd is > 4 mM (inactive).

Consider `CCC(=O)NC(=S)Nc1ccc(C(N)=O)cc1`, for which the Kd was > 4 mM (inactive).

In the case of `O=C(NCc1cccc(Cl)c1)c1cnccn1`, the Kd is > 4 mM (inactive).

For the compound `NCc1cccc2c1OCCO2`, the Kd was > 4 mM (inactive).

`COc1c2occc2cc2ccc(=O)oc12`: the Kd was > 4 mM (inactive).

As for `Nn1c(CN2CCCCC2)nc2ccccc2c1=O`, the Kd was > 4 mM (inactive).

Take `Cc1nc(CC(=O)O)c(-c2ccccc2)s1`: the Kd was > 4 mM (inactive).

`CC(=O)Nc1nnc(-c2ccco2)o1`: the Kd is > 4 mM (inactive).

In the case of `CC1(C)CC(NC(=O)/C=C/C(=O)O)CC(C)(C)N1`, the Kd was > 4 mM (inactive).

Take `CCOC(=O)c1cc(C)n(C)n1`: the Kd is > 4 mM (inactive).

Turning to `COc1ccc(NC(=O)N2CCCCC2)cc1`, the Kd is > 4 mM (inactive).

Turning to `C[C@@H](N)[C@@H](O)c1ccccc1`, the Kd is > 4 mM (inactive).

Turning to `CC1=NN2C(=N)CC(=O)N=C2S1`, the Kd is > 4 mM (inactive).

Turning to `C[C@@H]1O[C@@H](O[C@H]2C[C@@H](O)[C@]3(CO)C4C(CC[C@]3(O)C2)[C@@]2(O)CC[C@H](C3=CC(=O)OC3)[C@@]2(C)C[C@H]4O)[C@H](O)[C@H](O)[C@H]1O` (stereo partly drawn), the Kd is > 4 mM (inactive).

For `Nc1c2c3c(sc2nc(=O)n1N)CCCC3`, the Kd is > 4 mM (inactive).

For `O=C(O)C1COc2ccccc2C1` (stereo not drawn), the Kd is > 4 mM (inactive).

Consider `Nc1cccc2c(=O)[nH][nH]c(=O)c12`, for which the Kd was > 4 mM (inactive).

Regarding `NC(=O)CC(=O)NC12CC3CC(CC(C3)C1)C2`, the Kd was > 4 mM (inactive).

Take `CC(=O)NC(=S)Nc1ccccc1N1CCOCC1`: the Kd was > 4 mM (inactive).

Consider `CN1CCN(c2ncnc3nc[nH]c23)CC1`, for which the Kd was > 4 mM (inactive).

Turning to `COC(=O)[C@]1(C)CCC[C@]2(C)c3ccc(C(C)C)cc3C(=O)CC12` (stereo partly drawn), the Kd was > 4 mM (inactive).

As for `C(=N\c1ncn[nH]1)/c1cccs1`, the Kd is > 4 mM (inactive).

`Cc1nc2ccccc2c(=O)n1N1C(=O)CCCC1=O`: the Kd is > 4 mM (inactive).

Consider `Cc1c(N=Cc2ccco2)c(=O)n(-c2ccccc2)n1C`, for which the Kd is > 4 mM (inactive).

As for `O=S(=O)(Nc1cccnc1Cl)c1ccccc1`, the Kd was > 4 mM (inactive).

`O=C(O)c1ccc(NCc2cccnc2)cc1`: the Kd was > 4 mM (inactive).

Regarding `O=c1[nH]c(=O)n(-c2ccc(F)cc2)c(O)c1/C=C1/C=CC=N1`, the Kd was > 4 mM (inactive).

Take `Cc1cc(N2C(=O)CCC2=O)n(-c2ccccc2)n1`: the Kd was > 4 mM (inactive).

As to `O=C(O)c1ccc(NC(=O)c2cccs2)cc1`, the Kd is > 4 mM (inactive).

Take `CC[C@H](/C=C/C(C)C1CCC2C3CCC4=CC(=O)CC[C@]4(C)C3CC[C@]12C)C(C)C` (stereo partly drawn): the Kd is > 4 mM (inactive).

For `C=CCCCCCCCCCCCc1ccco1`, the Kd is > 4 mM (inactive).

In the case of `CCOC(=O)C(C)c1n[nH]c(=O)c2ccccc12` (stereo not drawn), the Kd is > 4 mM (inactive).

Turning to `CC(=O)NC(C)C12CC3CC(CC(C(=O)O)(C3)C1)C2` (stereo not drawn), the Kd is > 4 mM (inactive).

Regarding `CC(=O)O[C@H]1CC[C@@]2(C)C(=CCC3C2CC[C@@]2(C)C3CC[C@@H]2C(C)CCCC(C)C)C1` (stereo partly drawn), the Kd is > 4 mM (inactive).

For `NS(=O)(=O)c1ccc(NC(=O)/C=C\C(=O)O)cc1`, the Kd is > 4 mM (inactive).

`O=C(O)c1cccc2c1OCC2`: the Kd was > 4 mM (inactive).

On to `O=CN1CCN(C(=O)c2ccco2)CC1`, for which the Kd is > 4 mM (inactive).

Consider `Nc1nc(CSc2ncn(-c3ccccc3)n2)cs1`, for which the Kd is > 4 mM (inactive).

As for `O=S1(=O)C=CC(Nc2ccccc2)C1` (stereo not drawn), the Kd is > 4 mM (inactive).

Take `COc1ccc2cnn(-c3ccccc3)c(=O)c2c1OC`: the Kd was > 4 mM (inactive).

In the case of `CC1(O)CC2C=CC1C2` (stereo not drawn), the Kd is > 4 mM (inactive).

As for `COc1cc2c(cc1-c1coc3c4c(c(OC)cc3c1=O)OC(C)(C)C=C4)OCO2`, the Kd is > 4 mM (inactive).

`CCOc1ccc(Cl)cc1S(=O)(=O)N1CCCC1`: the Kd is > 4 mM (inactive).

Consider `O=C(O)c1ccc(Oc2ccccc2)nc1`, for which the Kd is > 4 mM (inactive).

As for `COc1cccc(Oc2ccc(N)cc2)c1`, the Kd is > 4 mM (inactive).

With `O=c1cnnc(Nc2ccc(O)cc2)[nH]1`, the Kd was > 4 mM (inactive).

For the compound `O=c1[nH]cc(NC(=S)N2CCOCC2)c(=O)[nH]1`, the Kd was > 4 mM (inactive).

As for `Cn1c(SCC(N)=O)nc2ccccc2c1=O`, the Kd was > 4 mM (inactive).

On to `NC(=O)c1ccsc1NC(=O)C1=COCCO1`, for which the Kd was > 4 mM (inactive).

Consider `O=C(c1ccncc1)c1ccc(Br)cc1`, for which the Kd was > 4 mM (inactive).

For `CN1C(=O)/C(=C\c2ccc[nH]2)SC1=S`, the Kd is > 4 mM (inactive).

Regarding `c1ccc(-c2n[nH]c(-c3ccccn3)n2)nc1`, the Kd was > 4 mM (inactive).

In the case of `COc1c2ccccc2nc2occc12`, the Kd was > 4 mM (inactive).

Regarding `Nc1ccc(F)cc1F`, the Kd was > 4 mM (inactive).

On to `O=C(CCc1ccc(O)cc1)c1c(O)cc(O)cc1O[C@@H]1O[C@H](CO)[C@@H](O)[C@H](O)[C@H]1O`, for which the Kd was > 4 mM (inactive).

Turning to `Nc1ccc2ncsc2c1`, the Kd is > 4 mM (inactive).

Consider `O=C(Oc1ccc2c(c1)OCC2=O)c1ccccc1`, for which the Kd is > 4 mM (inactive).

Regarding `NC(=S)NC1CCS(=O)(=O)C1` (stereo not drawn), the Kd was > 4 mM (inactive).

Turning to `CSc1nc2nc(C)cc(=O)n2[nH]1`, the Kd was > 4 mM (inactive).

Take `CCn1cnc2scc(-c3ccccc3)c2c1=O`: the Kd was > 4 mM (inactive).

For `Cc1cc(=O)n2[nH]c(COc3ccccc3)nc2n1`, the Kd is > 4 mM (inactive).

`CN(C)c1nc(N)nc(Cn2ccnc2)n1`: the Kd is > 4 mM (inactive).

Consider `CSCCNC(C)=O`, for which the Kd was > 4 mM (inactive).

In the case of `CC(C)NC(=O)c1cc(-n2cnnc2)ccc1Cl`, the Kd was > 4 mM (inactive).

In the case of `Cc1csc(CCc2nc(C)cs2)n1`, the Kd was > 4 mM (inactive).

`Cc1ccc(C(=O)N2CCC(C(N)=O)CC2)cc1C`: the Kd is > 4 mM (inactive).

For `CCN1C(=O)N(CO)C2C1N(C)C(=O)N2C` (stereo not drawn), the Kd was > 4 mM (inactive).

In the case of `O=C(O[C@@H]1Cc2c(O)cc(O)cc2O[C@@H]1c1cc(O)c(O)c(O)c1)c1cc(O)c(O)c(O)c1`, the Kd was > 4 mM (inactive).

With `NC(=O)c1cccc(Cl)n1`, the Kd is > 4 mM (inactive).

Regarding `O=c1sc2ccccc2n1CN1CCOCC1`, the Kd is > 4 mM (inactive).

In the case of `Cc1ccc(F)cc1NC(=O)c1ccc2c(c1)OCO2`, the Kd is > 4 mM (inactive).

For `O=C1CN2C(=N1)N(Cc1ccccc1)c1ccccc12`, the Kd is > 4 mM (inactive).

Turning to `COc1cnn(-c2ccccc2)c(=O)c1N(C)C`, the Kd was > 4 mM (inactive).

Take `Cc1c(C)[n+](=O)c(-c2cccs2)c(C)n1[O-]`: the Kd is > 4 mM (inactive).

For `CCn1c(C)c(C(C)=O)c(N2CCN(C)CC2)nc1=S`, the Kd was > 4 mM (inactive).

Turning to `CC(=O)O[C@H]1C[C@@]2(C)[C@@H](C[C@@H](O)C3[C@]2(C)CC[C@H]2[C@H](C)[C@H](O)CC[C@]32C)/C1=C(/CCC=C(C)C)C(=O)O` (stereo partly drawn), the Kd was > 4 mM (inactive).

On to `O=C(O)Cn1nnnc1-c1ccc(F)cc1`, for which the Kd is > 4 mM (inactive).

Turning to `CCn1nnc(NC(=O)c2ccccc2Br)n1`, the Kd is > 4 mM (inactive).
